Test results from US20250066389A1, “HETEROCYCLIC AMIDES AND METHODS OF USING THE SAME” (Rgenta Therapeutics, Inc., priority 2021, published 2025).
pIC50: −log10 of the molar value. Counter-ions that a name gives are not always drawn.

test system: PMS1; assay: Mini-Gene Reporter Assay—PMS1 (firefly luciferase mini-gene reporter transiently transfected into HEK293 cells); format: cell-based; details: Homo sapiens; at 5 uM; mini-gene firefly luciferase reporter in HEK293 cells; read-out: PMS1 % Effect at 5 uM
Summary of the method: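 HEK293 cells transiently transfected with a mini-gene construct (skipped exon with flanking introns/exons fused to firefly luciferase, pcDNA3.1) are incubated with compounds in duplicate. Exon inclusion raises luminescence; EC50 fitted by Levenberg-Marquardt; effect also scored at 5 μM.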

Row | Compound | activation at 5 µM
1 | CCOc1cc2nn(C)cc2cc1C(=O)Nc1ccc(N2CCN(C(=O)OC(C)OC(=O)C(C)C)[C@@H](C)C2)nn1 (stereo partly drawn) [Compound 747, 1-(isobutyryloxy)ethyl (2S)-4-(6-(6-ethoxy-2-methyl-2H-indazole-5-carboxamido)pyridazin-3-yl)-2-methylpiperazine-1-carboxylate] | > 75%
2 | CCOc1cc2nc(C)cn2cc1C(=O)Nc1ccc(N2CC3CNCC3C2)nn1 (stereo not shown) [Compound 748, (7-ethoxy-N-(6-(hexahydropyrrolo[3,4-c]pyrrol-2(1H)-yl)pyridazin-3-yl)-2-methylimidazo[1,2-a]pyridine-6-carboxamide formate] | > 75%
3 | CCOc1cc2nn(C)cc2cc1C(=O)Nc1ccc(N2CCNCC2)nn1 [Compound 749, 6-ethoxy-2-methyl-N-(6-(piperazin-1-yl)pyridazin-3-yl)-2H-indazole-5-carboxamide hydrochloride] | > 75%
4 | CCOc1cc2nn(C)cc2cc1C(=O)Nc1ccc(N2CCN[C@H](C)C2)nn1 [Compound 750, (R)-6-ethoxy-2-methyl-N-(6-(3-methylpiperazin-1-yl)pyridazin-3-yl)-2H-indazole-5-carboxamide hydrochloride] | > 75%
5 | CCOc1cc2nn(C)cc2cc1C(=O)Nc1ccc(N2C[C@@H](C)N[C@@H](C)C2)nn1 [Compound 751, N-(6-((3S,5R)-3,5-dimethylpiperazin-1-yl)pyridazin-3-yl)-6-ethoxy-2-methyl-2H-indazole-5-carboxamide hydrochloride] | > 75%
6 | CCOc1cc2nn(C)cc2cc1C(=O)Nc1ccc(C2=CC(C)NCC2)nn1 (stereo not shown) [Compound 752, 6-ethoxy-2-methyl-N-(6-(6-methyl-1,2,3,6-tetrahydropyridin-4-yl)pyridazin-3-yl)-2H-indazole-5-carboxamide] | > 75%
7 | CCOc1cn2nc(C)cc2cc1C(=O)Nc1ccc(N2CCNCC2)nn1 [Compound 753, 6-ethoxy-2-methyl-N-(6-(piperazin-1-yl)pyridazin-3-yl)pyrazolo[1,5-a]pyridine-5-carboxamide hydrochloride] | > 75%
8 | CCOc1cn2nc(C)cc2cc1C(=O)Nc1ccc(C2=CCNCC2)nn1 [Compound 754, 6-ethoxy-2-methyl-N-(6-(1,2,3,6-tetrahydropyridin-4-yl)pyridazin-3-yl)pyrazolo[1,5-a]pyridine-5-carboxamide hydrochloride] | > 75%
9 | CCOc1cn2nc(C)cc2cc1C(=O)Nc1ccc(N2CCNC(C)(C)C2)nn1 [Compound 755, N-(6-(3,3-dimethylpiperazin-1-yl)pyridazin-3-yl)-6-ethoxy-2-methylpyrazolo[1,5-a]pyridine-5-carboxamide hydrochloride] | > 75%
10 | CCOc1cc2nn(C)cc2cc1C(=O)Nc1ccc(C2=CC(C)(C)NCC2)nn1 [Compound 756, N-(6-(6,6-dimethyl-1,2,3,6-tetrahydropyridin-4-yl)pyridazin-3-yl)-6-ethoxy-2-methyl-2H-indazole-5-carboxamide formate] | > 75%
11 | CCOc1cn2nc(C)cc2cc1C(=O)Nc1ccc(C2CCNCC2)nn1 [Compound 757, 6-ethoxy-2-methyl-N-(6-(piperidin-4-yl)pyridazin-3-yl)pyrazolo[1,5-a]pyridine-5-carboxamide hydrochloride] | > 75%

same assay, conditions: Homo sapiens; mini-gene firefly luciferase reporter in HEK293 cells

Row | Compound | pIC50
12 | CCOc1cc2nc(C)cn2cc1C(=O)Nc1ccc(N2CC[C@@H](NC(C)(C)C)C2)nn1 [Compound 723, (R)—N-(6-(3-(tert-butylamino)pyrrolidin-1-yl)pyridazin-3-yl)-7-ethoxy-2-methylimidazo[1,2-a]pyridine-6-carboxamide] | 5.00 to 6.00
13 | COc1cc2nc(C)cn2cc1C(=O)Nc1ccc(N2C[C@@H](C)N[C@@H](C)C2)cn1 [Compound 724, N-(5-((3R,5S)-3,5-dimethylpiperazin-1-yl)pyridin-2-yl)-7-methoxy-2-methylimidazo[1,2-a]pyridine-6-carboxamide] | 5.00 to 6.00
14 | CCOc1nc2nc(C)cn2cc1C(=O)Nc1ccc(N2CCNC3(CC3)C2)nn1 [Compound 725, N-(6-(4,7-diazaspiro[2.5]octan-7-yl)pyridazin-3-yl)-7-ethoxy-2-methylimidazo[1,2-a]pyrimidine-6-carboxamide formic acid] | 5.00 to 6.00
15 | COc1cn2nc(C)cc2cc1C(=O)Nc1ccc(N2CCN[C@@H](C)C2)nn1 [Compound 726, (S)-6-methoxy-2-methyl-N-(6-(3-methylpiperazin-1-yl)pyridazin-3-yl)pyrazolo[1,5-a]pyridine-5-carboxamide hydrochloride] | 5.00 to 6.00
16 | CCOc1cc2nn(C)cc2cc1C(=O)Nc1ccc(C2CCNCC2)nn1 [Compound 728, 6-ethoxy-2-methyl-N-(6-(piperidin-4-yl)pyridazin-3-yl)-2H-indazole-5-carboxamide hydrochloride] | 5.00 to 6.00
17 | CCOc1cc2nc(C)cn2cc1C(=O)Nc1ccc(N2CCN(C)CC2)nn1 [Compound 729, 7-ethoxy-2-methyl-N-(6-(4-methylpiperazin-1-yl)pyridazin-3-yl)imidazo[1,2-a]pyridine-6-carboxamide] | 5.00 to 6.00
18 | CCOc1nc2nn(C)cc2cc1C(=O)Nc1ccc(N2CCNCC2)cn1 [Compound 730, 6-ethoxy-2-methyl-N-(5-(piperazin-1-yl)pyridin-2-yl)-2H-pyrazolo[3,4-b]pyridine-5-carboxamide] | 5.00 to 6.00
19 | CCOc1nc2nc(C)cn2cc1C(=O)Nc1ccc(N2CCN(C)CC2)nn1 [Compound 731, 7-ethoxy-2-methyl-N-(6-(4-methylpiperazin-1-yl)pyridazin-3-yl)imidazo[1,2-a]pyrimidine-6-carboxamide formic acid] | 5.00 to 6.00
20 | CCOc1nc2nc(C)cn2cc1C(=O)Nc1ccc(N2CCNCC2)nn1 [Compound 732, 7-ethoxy-2-methyl-N-(6-(piperazin-1-yl)pyridazin-3-yl)imidazo[1,2-a]pyrimidine-6-carboxamide formate] | 5.00 to 6.00
21 | CCOc1cc2nc(C)cn2cc1C(=O)Nc1ccc(N2CCC(NC(C)(C)C)C2)nn1 (stereo not shown) [Compound 733, N-(6-(3-(tert-butylamino)pyrrolidin-1-yl)pyridazin-3-yl)-7-ethoxy-2-methylimidazo[1,2-a]pyridine-6-carboxamide] | 5.00 to 6.00
22 | CCOc1cc2nn(C)cc2cc1C(=O)Nc1cnc(N2CCNC(C)(C)C2)cn1 [Compound 734, N-(5-(3,3-dimethylpiperazin-1-yl)pyrazin-2-yl)-6-ethoxy-2-methyl-2H-indazole-5-carboxamide hydrochloride] | 5.00 to 6.00
23 | COc1cc2nc(C)cn2cc1C(=O)Nc1ccc(C2CCNCC2)cn1 [Compound 735, 7-methoxy-2-methyl-N-(5-(piperidin-4-yl)pyridin-2-yl) imidazo[1,2-a]pyridine-6-carboxamide hydrochloride] | 5.00 to 6.00
24 | COc1cc2nn(C)cc2cc1C(=O)Nc1cnc(N2CCN[C@@H](C)C2)cn1 [Compound 736, (S)-6-methoxy-2-methyl-N-(5-(3-methylpiperazin-1-yl)pyrazin-2-yl)-2H-indazole-5-carboxamide hydrochloride] | 5.00 to 6.00
25 | CCOc1cc2nc(C)cn2cc1C(=O)Nc1ccc(N2CCN(C)[C@@H](C)C2)nn1 [Compound 737, (S)—N-(6-(3,4-dimethylpiperazin-1-yl)pyridazin-3-yl)-7-ethoxy-2-methylimidazo[1,2-a]pyridine-6-carboxamide formate] | 5.00 to 6.00
26 | CCOc1cc2nn(C)cc2cc1C(=O)Nc1ccc(N2CCN3CCC[C@H]3C2)nn1 [Compound 738, (S)-6-ethoxy-N-(6-(hexahydropyrrolo[1,2-a]pyrazin-2(1H)-yl)pyridazin-3-yl)-2-methyl-2H-indazole-5-carboxamide] | 5.00 to 6.00
27 | CCOc1cc2nn(C)cc2cc1C(=O)Nc1ccc(N2CCN3CCC[C@@H]3C2)nn1 [Compound 739, (R)-6-ethoxy-N-(6-(hexahydropyrrolo[1,2-a]pyrazin-2(1H)-yl)pyridazin-3-yl)-2-methyl-2H-indazole-5-carboxamide formate] | 5.00 to 6.00
28 | CCOc1cc2nc(C)cn2cc1C(=O)Nc1ccc(N2C[C@@H](C)N(C)[C@@H](C)C2)nn1 [Compound 740, 7-ethoxy-2-methyl-N-(6-((3S,5R)-3,4,5-trimethylpiperazin-1-yl)pyridazin-3-yl)imidazo[1,2-a]pyridine-6-carboxamide] | 5.00 to 6.00
29 | CCOc1cc2nc(C)cn2cc1C(=O)Nc1cc(C)c(N2CCN[C@@H](C)C2)nn1 [Compound 741, (S)-7-ethoxy-2-methyl-N-(5-methyl-6-(3-methylpiperazin-1-yl)pyridazin-3-yl)imidazo[1,2-a]pyridine-6-carboxamide formate] | 5.00 to 6.00
30 | CCOc1nc2nn(C)cc2cc1C(=O)Nc1cnc(N2CCNCC2)cn1 [Compound 742, 6-ethoxy-2-methyl-N-(5-(piperazin-1-yl)pyrazin-2-yl)-2H-pyrazolo[3,4-b]pyridine-5-carboxamide hydrochloride] | 5.00 to 6.00
31 | CCOc1cc2nn(C)cc2cc1C(=O)Nc1cnc(N2CCN(C)[C@@H](C)C2)cn1 [Compound 743, (S)—N-(5-(3,4-dimethylpiperazin-1-yl)pyrazin-2-yl)-6-ethoxy-2-methyl-2H-indazole-5-carboxamide formate] | 5.00 to 6.00
32 | CCOc1cn2nc(C)cc2cc1C(=O)Nc1cnc(N2C[C@@H](C)N[C@@H](C)C2)cn1 [Compound 744, N-(5-((3S,5R)-3,5-dimethylpiperazin-1-yl)pyrazin-2-yl)-6-ethoxy-2-methylpyrazolo[1,5-a]pyridine-5-carboxamide hydrochloride] | 5.00 to 6.00
33 | CCOc1cc2nc(C)cn2cc1C(=O)Nc1ccc(N2CC3CN(C)CC3C2)nn1 (stereo not shown) [Compound 745, 7-ethoxy-2-methyl-N-(6-(5-methylhexahydropyrrolo[3,4-c]pyrrol-2(1H)-yl)pyridazin-3-yl)imidazo[1,2-a]pyridine-6-carboxamide formate] | 5.00 to 6.00
34 | COc1cc2nn(C)cc2cc1C(=O)Nc1cnc(N2CCNCC2)cn1 [Compound 746, 6-methoxy-2-methyl-N-(5-(piperazin-1-yl)pyrazin-2-yl)-2H-indazole-5-carboxamide formate] | 5.00 to 6.00
